Counter-ions that a name gives are not always drawn. Like-named read-outs stand apart in the source and are kept apart here.

IC50 data for 14 compounds are collected here from patent US6967196B1, “Sulfonamide compounds and uses thereof” (Bristol-Myers Squibb Company, priority 1999, dated 2005).

The assay has as its system amyloid β production in transfected H4 (human neuroglioma) cells stably expressing APP constructs. Description: In vitro cell-based assay of inhibitors of amyloid β production (ELISA). Particulars: amyloid β in medium by ELISA. The method in brief: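 H4 neuroglioma cells stably expressing APP constructs were dosed in fresh medium, screened initially at 10-100 μM, and incubated ~16 h. Medium Aβ was measured by ELISA with C-terminal-epitope capture and N-terminal detection antibodies, quantified from a standard curve, with dose-response testing of actives.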
(An ELISA detects its analyte on a solid surface through an enzyme-linked reagent.)

[1] abbreviates: transfected H4 cells stably expressing APP, approximately 16 hours incubation, read-out: ACTIVITY (IC50, inhibition of amyloid β production).
The mark [2] stands for this setting: Homo sapiens, 16 h, transfected H4 cells stably expressing APP, approximately 16 hours incubation, read-out: ACTIVITY (IC50, inhibition of amyloid β production).
Where [3] appears, read: transfected H4 cells stably expressing APP, approx. 16 h incubation, read-out: ACTIVITY (IC50, inhibition of amyloid β production).
Where [4] appears, read: transfected H4 cells stably expressing APP constructs, approximately 16 hours incubation, read-out: ACTIVITY (IC50, inhibition of amyloid β production).

With `CC(c1ccccc1OCCCn1ccnc1)N(c1cc(F)ccc1F)S(=O)(=O)c1ccc(Cl)cc1` (centres unmarked) [Example 1047, 4-chloro-N-(2,5-difluorophenyl)-N-(1-{2-[3-(1H-imidazol-1-yl)propoxy]phenyl}ethyl)benzenesulfonamide], the IC50 under setting [1] was > 500 nM.
In the case of `O=S(=O)(c1ccc(Cl)cc1)N(Cc1ccccc1OCCCn1ccnc1)c1cc(Cl)ccc1Cl` [Example 740, 4-chloro-N-(2,5-dichlorophenyl)-N-{2-[3-(1H-imidazol-1-yl)propoxy]benzyl}benzenesulfonamide hydrochloride], for the setting “Homo sapiens, 16 h, transfected H4 cells stably expressing APP, approx. 16 h incubation, read-out: ACTIVITY (IC50, inhibition of amyloid β production)”, the IC50 fell in the range of 100 to 500 nM.
For the compound `C=C(C)C(=O)CCCc1cc(F)ccc1[C@@H](C)N(c1cc(F)ccc1F)S(=O)(=O)c1ccc(Cl)cc1` [Example 207, 4-chloro-N-(2,5-difluorophenyl)-N-{(1R)-1-[4-fluoro-2-(5-methyl-4-oxo-5-hexenyl)phenyl]ethyl}benzenesulfonamide], the IC50 (Homo sapiens, 16 h, Table B, transfected H4 cells stably expressing APP, approximately 16 hours incubation, read-out: ACTIVITY (inhibitory concentration IC50, inhibition of amyloid β production)) lay within 25 to 50 nM.
As to `O=S(=O)(c1ccc(Cl)cc1)N(Cc1ccccc1OCCCN1CCC2(CC1)OCCO2)c1ccccc1` [Example 877, 4-chloro-N-{2-[3-(1,4-dioxa-8-azaspiro[4.5]dec-8-yl)propoxy]benzyl}-N-phenylbenzenesulfonamide], the IC50 under setting [2] is 100 to 500 nM.
Regarding `C[C@H](c1ccc(F)cc1CCOC(=O)NCc1ccco1)N(c1cc(F)ccc1F)S(=O)(=O)c1ccc(Cl)cc1` [Example 435, 2-[2-((1R)-1-{[(4-chlorophenyl)sulfonyl]-2,5-difluoroanilino}ethyl)-5-fluorophenyl]ethyl 2 furylmethylcarbamate], under “Homo sapiens, 16 h, transfected H4 cells stably expressing APP, approximately 16 hours incubation, Table B, read-out: ACTIVITY (IC50, inhibition of amyloid β production)”, the IC50 lay within 50 to 100 nM.
Take `C[C@H](c1ccccc1CCOC(=O)NC1CCCCC1)N(c1cc(F)ccc1F)S(=O)(=O)c1ccc(Cl)cc1` [Example 685, 2-[2-((1R)-1-{3-[2-(1-{[(4-chlorophenyl)sulfonyl]-2,5-difluoroanilino}ethyl)phenyl]ethyl cyclohexylcarbamate]: under setting [3], the IC50 fell in the range of 100 to 500 nM.
For the compound “N-{3-[2-(1-{[(4-chlorophenyl)sulfonyl]-2,5-difluoroanilino}ethyl)phenoxy]propyl}-2,2-diphenylacetamide [Example 784]”, the IC50 under setting [3] lay in the range of 100 to 500 nM.
Same read-out and setting: next, `CC(C)C[C@H](NC(=O)CCC[C@@H](C)N(c1cc(Cl)ccc1F)S(=O)(=O)c1ccc(Cl)cc1)C(=O)O` [Example 546, (R)-4-Chloro-N-(5-chloro-2-fluorophenyl)-N-[5-[N-(S)-[1-(carboxy)-3-methylbutyl]amino]-1-methyl-5-oxopentyl]benzenesulfonamide]: 100 to 500 nM.
As for `C[C@H](CCCNC(=O)Oc1ccccc1)N(c1cc(Cl)ccc1Cl)S(=O)(=O)c1ccc(Cl)cc1` [Example 1154, 4-chloro-N-(2,5-dichlorophenyl)-N-[4-[[(phenoxy)carbonyl]amino]-1-methylbutyl]benzenesulfonamide], the IC50 (Homo sapiens, transfected H4 cells stably expressing APP constructs, approximately 16 hours incubation, read-out: ACTIVITY (IC50, inhibition of amyloid β production)) is 100 to 500 nM.
In the case of “4-chloro-N-(2,5-difluorophenyl)-N-[3-[2-[4-chloro-N-(2,5-difluorophenyl)-N-[(3-amino)-1(R)-methylpropyl]benzenesulfonamide]-3,4-dioxo-1-cyclobutenyl)amine-1(R)- [Example 1139]”, the IC50 under setting [4] was in the range of 100 to 500 nM.
In the case of “(E)-N-(2,5-dichlorophenyl)-2-phenyl-N-{2-[3-(1-piperidinyl)propoxy]benzyl}ethanesulfonamide hydrochloride [Example 994]”, under setting [1], the IC50 was > 500 nM.
Take `CCSCCC[C@@H](C)N(c1cc(Cl)ccc1CO)S(=O)(=O)c1ccc(SCC)cc1` [Example 1232, 4-ethylthio-N-[5-chloro-2-(hydroxymethyl)phenyl]-N-[1(R)-methyl-(4-ethylthio)butyl]benzenesulfonamide]: the IC50 under setting [4] is > 500 nM.
Consider `O=S(=O)(c1ccc(Cl)cc1)N(Cc1ccccc1OCCCN1CCC(Cc2ccccc2)CC1)c1ccccc1` [Example 880, N-{2-[3-(4-benzyl-1-piperidinyl)propoxy]benzyl}-4-chloro-N-phenylbenzenesulfonamide hydrochloride], for which the IC50 under setting [2] was > 500 nM.
In the case of `CCCCCCCCCCCCCCCCCC(=O)N(C)CCOc1ccccc1C(C)N(c1cc(F)ccc1F)S(=O)(=O)c1ccc(Cl)cc1` (centres unmarked) [Example 1098], the IC50 under setting [4] was > 10000 nM.
